Results reported in the supplement of paper PMC11061612.

What was measured:
[1] = system: KMRC-1 (Kidney Carcinoma); assay: Bliss excess, mean over the matrix (fraction); higher = more synergy
Procedure, shortened: (§1)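 After 24 hours at 37°C and 5% CO2 in 1536-well plates, cells in DMEM/F12 or RPMI plus 10% FBS received two-drug dose matrices for 72 hours. Viability came from CellTiter-Glo 2.0 luminescence and was scaled as inhibition, anchored at 0 by vehicle wells and at 1 by blank wells. Combination Emax is taken as the second-highest inhibition in the matrix, and Bliss excess as the observed combination effect less EA + EB − EA·EB, with EA and EB the single-agent effects.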

[2] = system: Ca-Ski (Cervical Carcinoma); assay: as above
Procedure, shortened: as §1

[3] = system: SW982 (Other Solid Carcinomas); assay: as above
Procedure, shortened: as §1

[4] = system: OE33 (Esophageal Adenocarcinoma); assay: as above
Procedure, shortened: as §1

[5] = system: KGN (Other Solid Carcinomas); assay: as above
Procedure, shortened: as §1

[6] = system: MOLT-4 (T-Lymphoblastic Leukemia); assay: as above
Procedure, shortened: as §1

[7] = system: ML-2 (Acute Myeloid Leukemia); assay: as above
Procedure, shortened: as §1

SK-N-AS (Neuroblastoma) = assay: as above
Procedure, shortened: as §1

[8] = system: Mo-T (Other Blood Carcinomas); assay: as above
Procedure, shortened: as §1

[9] = system: MV-4-11 (Acute Myeloid Leukemia); assay: as above
Procedure, shortened: as §1

COLO-679 (Melanoma) = assay: as above
Procedure, shortened: as §1

[10] = system: HAL-01 (B-Lymphoblastic Leukemia); assay: as above
Procedure, shortened: as §1

[11] = system: SW872 (Other Solid Carcinomas); assay: as above
Procedure, shortened: as §1

[12] = system: Ca-Ski (Cervical Carcinoma); assay: combination Emax (second highest fraction inhibited in the dose matrix, 72 h); higher = more inhibition; extreme values may be limits of the assay
Procedure, shortened: as §1
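For Bliss excess, mean over the matrix in this document: after 72 h of two-drug dosing.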

SMILES	Bliss excess [1]	Bliss excess [2]	Bliss excess [3]	Bliss excess [4]	Bliss excess [5]	Bliss excess [6]	Bliss excess [7]	Bliss excess (SK-N-AS (Neuroblastoma))	Bliss excess [8]	Bliss excess [9]	Bliss excess (COLO-679 (Melanoma))	Bliss excess [10]	Bliss excess [11]	combination Emax [12]
O=C(c1cc(Cc2n[nH]c(=O)c3ccccc23)ccc1F)N1CCN(C(=O)C2CC2)CC1 [Olaparib] + COc1nnc2ccc(N3CCC(c4ccc(OCCN5CCN(C)C(=O)[C@H]5C)cc4)CC3)nn12 [AZD5153] (first compound max 10 µM, 7x7, partner max 1 µM)	-0.0556	-0.0179	-0.0614	-0.057	0.018	0.023	-0.0153	-0.0662	-0.0413	0.008	-0.0654	0.007	0.0202	0.481
Cc1nc(-c2cn3c(n2)-c2ccc(-c4cnn(C(C)(C)C(N)=O)c4)cc2OCC3)n(C(C)C)n1 [Taselisib] + O=C(Nc1ccc2[nH]nc(-c3ccncc3)c2c1)[C@@H]1CCN(CC(=O)N2CCN(c3ccc(-c4ncccn4)cc3)CC2)C1 [SCH772984] (first compound max 10 µM, 7x7, partner max 5 µM)	-0.0377	0.0833	-0.0167	0.0674	0.0378	0.13	0.101	0.0187	0.0526	0.177	-0.0148	-0.0711	0.0712	0.833
CN(CCO)CC[C@H](CSc1ccccc1)Nc1ccc(S(=O)(=O)NC(=O)c2ccc(N3CCC([C@@H](O)c4ccccc4-c4ccc(Cl)cc4)CC3)cc2)cc1S(=O)(=O)C(F)(F)F [AZD4320] + CS(=O)(=O)CCNCc1ccc(-c2ccc3ncnc(Nc4ccc(OCc5cccc(F)c5)c(Cl)c4)c3c2)o1 [Lapatinib] (first compound max 1 µM, 7x7, partner max 10 µM)	0.0223	0.127	0.0799	0.0519	-0.0448	0.0886	0.0678	-0.0397	0.0485	0.018	-0.106	0.193	0.0097	1
C[C@@H]1COCCN1c1cc(C2([S@](C)(=N)=O)CC2)nc(-c2ccnc3[nH]ccc23)n1 [AZD6738] + Nc1ccn([C@@H]2O[C@H](CO)[C@@H](O)C2(F)F)c(=O)n1 [Gemcitabine] (first compound max 10 µM, 7x7, partner max 0.3 µM)	0.0601	0.0982	0.0352	-0.0518	0.0065	0.0315	0.108	0.0469	0.002	0.0067	-0.0611	-0.0031	0.0769	0.883
C[C@@H](Nc1cc(F)cc(F)c1)c1cc(C(=O)N(C)C)cc2c(=O)cc(N3CCOCC3)oc12 [AZD8186] + CC(=O)c1c(C)c2cnc(Nc3ccc(N4CCNCC4)cn3)nc2n(C2CCCC2)c1=O [Palbociclib] (first compound max 10 µM, 7x7, partner max 10 µM)	-0.0156	-0.0285	0.0551	0.0115	0.0548	0.0712	0.103	0.0334	-0.0319	0.0769	-0.0735	-0.0022	0.0874	0.484
C[C@@H](Oc1cc(-c2cnn(C3CCNCC3)c2)cnc1N)c1c(Cl)ccc(F)c1Cl [Crizotinib] + Cn1cnc2c(F)c(Nc3ccc(Br)cc3Cl)c(C(=O)NOCCO)cc21 [Selumetinib] (first compound max 10 µM, 7x7, partner max 10 µM)	-0.0191	0.0464	0.0165	-0.0199	-0.086	-0.0843	-0.0083	-0.0118	-0.047	-0.0232	-0.0369	-0.0267	-0.0107	0.551
C[C@@H]1COCCN1c1cc(C2([S@](C)(=N)=O)CC2)nc(-c2ccnc3[nH]ccc23)n1 [AZD6738] + C1CC(C1)(C(=O)[O-])C(=O)[O-].N.N.[Pt+2] [Carboplatin] (first compound max 10 µM, 7x7, partner max 10 µM)	-0.0289	0.0041	-0.0453	-0.0416	-0.0084	-0.013	-0.0111	-0.0538	-0.0272	-0.0339	-0.0944	-0.0435	0.0087	0.649
O=C(c1cc(Cc2n[nH]c(=O)c3ccccc23)ccc1F)N1CCN(C(=O)C2CC2)CC1 [Olaparib] + Cc1c2c(nn1C)CSCc1cc(n(C)n1)CSc1cc(c3ccccc3c1)OCCCc1c(C(=O)O)n(C)c3c-2c(Cl)ccc13 [AZD5991] (first compound max 10 µM, 7x7, partner max 1 µM)	-0.0784	-0.0275	-0.0011	-0.0543	-0.0651	0.0336	0.0318	-0.0347	-0.0492	0.0735	-0.0555	-0.0229	-0.0377	0.146
C=CCn1c(=O)c2cnc(Nc3ccc(N4CCN(C)CC4)cc3)nc2n1-c1cccc(C(C)(C)O)n1 [AZD1775] + CCc1c2c(nc3ccc(O)cc13)-c1cc3c(c(=O)n1C2)COC(=O)[C@]3(O)CC [SN-38] (first compound max 1 µM, partner max 0.3 µM)	-0.0817	0.0285	-0.0158	-0.0694	-0.114	0.0188	-0.0033	0.0032	-0.0799	-0.0281	-0.171	-0.0249	-0.0641	1
O=C(c1cc(Cc2n[nH]c(=O)c3ccccc23)ccc1F)N1CCN(C(=O)C2CC2)CC1 [Olaparib] + CC1(C)CCC(CN2CCN(c3ccc(C(=O)NS(=O)(=O)c4ccc(NCC5CCOCC5)c([N+](=O)[O-])c4)c(Oc4cnc5[nH]ccc5c4)c3)CC2)=C(c2ccc(Cl)cc2)C1 [Venetoclax] (first compound max 10 µM, 7x7, partner max 1 µM)	-0.0522	-0.0069	-0.0429	-0.0457	-0.0145	0.124	0.115	-0.031	-0.0336	0.0475	-0.0643	0.122	-0.023	0.162
CS(=O)(=O)CCNCc1ccc(-c2ccc3ncnc(Nc4ccc(OCc5cccc(F)c5)c(Cl)c4)c3c2)o1 [Lapatinib] + Cn1cnc2c(F)c(Nc3ccc(Br)cc3Cl)c(C(=O)NOCCO)cc21 [Selumetinib] (first compound max 10 µM, 7x7, partner max 10 µM)	-0.0772	-0.0185	0.034	-0.0143	0.0232	0.0852	-0.151	0.0034	-0.0542	0.0464	-0.116	0.0997	0.0006	0.671
C[C@@H](Oc1cc(-c2cnn(C3CCNCC3)c2)cnc1N)c1c(Cl)ccc(F)c1Cl [Crizotinib] + CC1=C(C(=CC=C1)Cl)NC(=O)C2=CN=C(S2)NC3=CC(=NC(=N3)C)N4CCN(CC4)CCO [Dasatinib] (first compound max 10 µM, 7x7, partner max 2 µM)	0.0644	0.0454	0.0386	0.0828	-0.0204	-0.0209	-0.0165	-0.0164	-0.0588	0.0161	-0.0604	-0.0172	0.041	0.942
Cc1c2c(nn1C)CSCc1cc(n(C)n1)CSc1cc(c3ccccc3c1)OCCCc1c(C(=O)O)n(C)c3c-2c(Cl)ccc13 [AZD5991] + CS(=O)(=O)CCNCc1ccc(-c2ccc3ncnc(Nc4ccc(OCc5cccc(F)c5)c(Cl)c4)c3c2)o1 [Lapatinib] (first compound max 1 µM, 7x7, partner max 10 µM)	-0.0282	0.0164	-0.0151	-0.042	-0.0049	0.0254	0.0008	-0.0363	-0.0344	0.0343	-0.149	0.162	0.0129	0.735
Cc1c2c(nn1C)CSCc1cc(n(C)n1)CSc1cc(c3ccccc3c1)OCCCc1c(C(=O)O)n(C)c3c-2c(Cl)ccc13 [AZD5991] + Nc1ccn([C@@H]2O[C@H](CO)[C@@H](O)C2(F)F)c(=O)n1 [Gemcitabine] (first compound max 1 µM, 7x7, partner max 0.3 µM)	-0.0638	0.0354	-0.0594	0.0018	-0.0457	0.0224	0.0116	0.0183	-0.0226	0.0035	-0.0703	0.0025	-0.0066	0.757
